Laboratory results: ChEMBL document CHEMBL1201862, “PubChem BioAssay data set” (2004)
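Tested at 5 concentrations; 48 h exposure; 96-well plates; endpoints linearly interpolated, else capped at highest concentration. GI50 is the concentration that inhibits growth by half.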 Active and inactive are the calls of the source. Rule as the data show it: active = GI50 up to about 1.1 µM and inactive = higher.

How the values were obtained:
Experiment in all cases: DTP human tumour cell line panel, 48 h
786-0 = tested on: 786-0
CAKI-1 = tested on: CAKI-1
COLO 205 = tested on: COLO 205
DLD-1 = tested on: DLD-1
HCT-116 = tested on: HCT-116
HOP-92 = tested on: HOP-92
LOX IMVI = tested on: LOX IMVI
OVCAR-5 = tested on: OVCAR-5
RXF 393 = tested on: RXF 393
SF-268 = tested on: SF-268
SF-539 = tested on: SF-539
SK-MEL-5 = tested on: SK-MEL-5
SN12C = tested on: SN12C
UACC-257 = tested on: UACC-257
UACC-62 = tested on: UACC-62
UO-31 = tested on: UO-31
DU-145 = tested on: DU-145
MDA-MB-231 = tested on: MDA-MB-231
MDA-N = tested on: MDA-N

Measured: GI50

C[N+](C)(C)CC(=O)N/N=C(\C(=O)Nc1ccc(Cl)cc1)C1C(=O)N(c2ccccc2)N=C1N (stereo unspecified)
inactive: 786-0 > 100 µM | CAKI-1 > 100 µM | COLO 205 > 100 µM | DLD-1 > 100 µM | HCT-116 > 100 µM | HOP-92 > 100 µM | LOX IMVI > 100 µM | OVCAR-5 > 100 µM | RXF 393 > 100 µM | SF-268 > 100 µM | SF-539 > 100 µM | SK-MEL-5 > 100 µM | SN12C > 100 µM | UACC-257 > 100 µM | UACC-62 > 100 µM | UO-31 > 100 µM

COc1cc(Cl)cc(N(O)C(C)=O)c1OCc1ccccc1
inactive: 786-0 61.8 µM | CAKI-1 > 100 µM | COLO 205 > 100 µM | DLD-1 > 100 µM | HCT-116 75.2 µM | HOP-92 > 100 µM | LOX IMVI 77.6 µM | OVCAR-5 > 100 µM | RXF 393 > 100 µM | SF-268 44.8 µM | SF-539 83.4 µM | SK-MEL-5 > 100 µM | SN12C > 100 µM | UACC-257 > 100 µM | UACC-62 49.7 µM | UO-31 51.8 µM

CN(C)/C=C/C(=CC=[N+](C)C)/C=C/N(C)C.[O-][Cl+3]([O-])([O-])[O-]
inactive: 786-0 > 100 µM | CAKI-1 70.3 µM | DLD-1 > 100 µM | HCT-116 > 100 µM | HOP-92 > 100 µM | LOX IMVI 57 µM | OVCAR-5 > 100 µM | RXF 393 > 100 µM | SF-268 > 100 µM | SF-539 > 100 µM | SK-MEL-5 > 100 µM | SN12C > 100 µM | UACC-257 > 100 µM | UACC-62 > 100 µM | UO-31 > 100 µM

c1cncc(C2c3[nH]c4ccccc4c3CCN2CCCN2CCCCC2)c1 (stereo unspecified)
inactive: 786-0 > 100 µM | CAKI-1 > 100 µM | COLO 205 84.3 µM | DLD-1 > 100 µM | HCT-116 > 100 µM | HOP-92 > 100 µM | LOX IMVI > 100 µM | OVCAR-5 > 100 µM | RXF 393 53.6 µM | SF-539 > 100 µM | SK-MEL-5 37.2 µM | SN12C > 100 µM | UACC-257 60.7 µM | UACC-62 92.9 µM | UO-31 81.1 µM

CN(C)CC1CCC(CN(C)C)C1=NO (stereo unspecified)
inactive: 786-0 > 100 µM | CAKI-1 > 100 µM | COLO 205 > 100 µM | DLD-1 > 100 µM | HCT-116 > 100 µM | HOP-92 > 100 µM | LOX IMVI > 100 µM | OVCAR-5 > 100 µM | RXF 393 > 100 µM | SF-268 > 100 µM | SF-539 > 100 µM | SK-MEL-5 > 100 µM | SN12C > 100 µM | UACC-257 > 100 µM | UACC-62 > 100 µM | UO-31 > 100 µM

Cc1nc(N)sc1C(=O)/C=C/c1ccc([N+](=O)[O-])cc1
inactive: 786-0 > 100 µM | CAKI-1 > 100 µM | COLO 205 > 100 µM | DLD-1 > 100 µM | HOP-92 > 100 µM | LOX IMVI > 100 µM | OVCAR-5 > 100 µM | RXF 393 > 100 µM | SF-268 > 100 µM | SF-539 > 100 µM | SK-MEL-5 > 100 µM | SN12C > 100 µM | UACC-257 > 100 µM | UACC-62 > 100 µM | UO-31 > 100 µM

O=c1[nH]cnc2c(COCCO)c[nH]c12
inactive: 786-0 > 100 µM | CAKI-1 > 100 µM | COLO 205 > 100 µM | DLD-1 > 100 µM | HOP-92 > 100 µM | LOX IMVI > 100 µM | OVCAR-5 > 100 µM | RXF 393 > 100 µM | SF-268 > 100 µM | SF-539 > 100 µM | SK-MEL-5 > 100 µM | SN12C > 100 µM | UACC-257 > 100 µM | UACC-62 > 100 µM | UO-31 > 100 µM

COC1(C)Cc2c(c(C)c(O)c3c2C(=O)C=C(Cl)C3=O)O1 (stereo unspecified)
inactive: 786-0 > 100 µM | CAKI-1 20.4 µM | COLO 205 18.2 µM | DLD-1 15.7 µM | DU-145 91.4 µM | HCT-116 44.5 µM | HOP-92 18.9 µM | LOX IMVI 44.8 µM | MDA-MB-231 16.1 µM | MDA-N 34.9 µM | OVCAR-5 > 100 µM | RXF 393 16 µM | SF-268 > 88.1 µM | SF-539 > 100 µM | SK-MEL-5 40.8 µM | SN12C > 65.6 µM | UACC-257 > 56.5 µM | UACC-62 35.8 µM | UO-31 > 87.3 µM

O=C(/C=C/c1ccc(Cl)cc1)c1ccc(Cl)c(Cl)c1
inactive: 786-0 25.5 µM | CAKI-1 18.1 µM | COLO 205 > 10 µM | DLD-1 15 µM | HCT-116 4.99 µM | HOP-92 > 10 µM | LOX IMVI 15.2 µM | OVCAR-5 > 10 µM | RXF 393 15.5 µM | SF-268 20.7 µM | SF-539 20 µM | SK-MEL-5 18.1 µM | SN12C 9.1 µM | UACC-257 29.6 µM | UACC-62 23.7 µM | UO-31 28.5 µM

Cc1ccc(NC(=O)C(=O)C2C(=O)NC(=O)NC2=O)c(C)c1
inactive: 786-0 > 100 µM | CAKI-1 > 100 µM | COLO 205 13.8 µM | DLD-1 > 100 µM | HCT-116 > 100 µM | HOP-92 > 100 µM | LOX IMVI > 100 µM | OVCAR-5 > 100 µM | RXF 393 > 100 µM | SF-268 > 100 µM | SF-539 > 100 µM | SK-MEL-5 > 100 µM | SN12C 14.9 µM | UACC-257 > 100 µM | UACC-62 > 100 µM | UO-31 > 100 µM

COc1ccc(NC(=O)CC/C(CC(=O)C(C)(C)C)=N\NC(=O)C(=O)NN)cc1
inactive: 786-0 > 100 µM | CAKI-1 > 100 µM | COLO 205 > 100 µM | DLD-1 > 100 µM | HCT-116 > 100 µM | HOP-92 56.5 µM | LOX IMVI > 100 µM | OVCAR-5 > 100 µM | RXF 393 > 100 µM | SF-268 > 100 µM | SF-539 > 100 µM | SK-MEL-5 > 100 µM | SN12C > 100 µM | UACC-257 > 100 µM | UACC-62 > 100 µM | UO-31 > 100 µM

Nc1ccc2ncc(NCc3ccc(F)cc3)nc2c1
inactive: 786-0 > 100 µM | CAKI-1 71.9 µM | COLO 205 > 100 µM | DLD-1 > 100 µM | HCT-116 > 100 µM | HOP-92 53.1 µM | LOX IMVI 75 µM | OVCAR-5 > 100 µM | RXF 393 34.4 µM | SF-268 48.2 µM | SF-539 39.6 µM | SK-MEL-5 48.1 µM | SN12C 87.5 µM | UACC-257 > 100 µM | UACC-62 54.2 µM | UO-31 16.4 µM
